Results taken from ChEMBL document CHEMBL1629669, “Two clinical strains of Klebsiella pneumoniae carrying plasmid-borne blaIMP-4, blaSHV-12, and armA isolated at a Pediatric Center in Shanghai, China” (2009).
≈ marks a conversion by molar mass, not a printed value.

Assays:
Assay type in all cases: functional
[1] = test system: Klebsiella pneumoniae; test: Antimicrobial activity against multidrug resistant Klebsiella pneumoniae isolate KpSCMC2 harboring int1, bla IMP-4, bla SHV-12, armA and sul1 gene isolated from patient with pulmonary infection by disk diffusion method
[2] = test system: Klebsiella pneumoniae; test: Antimicrobial activity against carbapenem susceptible Klebsiella pneumoniae isolate KpSCMC2c harboring bla SHV-12 gene isolated from patient with pulmonary infection by Etest method
[3] = test system: Klebsiella pneumoniae; test: Antimicrobial activity against multidrug resistant Klebsiella pneumoniae isolate KpSCMC1 harboring int1, bla IMP-4, bla SHV-12, armA and sul1 gene isolated from patient with pulmonary infection by disk diffusion method
[4] = test system: Klebsiella pneumoniae; test: Antimicrobial activity against multidrug resistant Klebsiella pneumoniae isolate KpSCMC1 harboring int1, bla IMP-4, bla SHV-12, armA and sul1 gene isolated from patient with pulmonary infection by Etest method
[5] = test system: Klebsiella pneumoniae; test: Antimicrobial activity against multidrug resistant Klebsiella pneumoniae isolate KpSCMC2 harboring int1, bla IMP-4, bla SHV-12, armA and sul1 gene isolated from patient with pulmonary infection by Etest method
[6] = test system: Klebsiella pneumoniae; test: Antimicrobial activity against carbapenem susceptible Klebsiella pneumoniae isolate KpSCMC2c harboring bla SHV-12 gene isolated from patient with pulmonary infection by disk diffusion method

Row | SMILES | inhibition zone (IZ) [1] [mm] | MIC [2] [µg/mL] | inhibition zone (IZ) [3] [mm] | MIC [4] [µg/mL] | MIC [5] [µg/mL] | inhibition zone (IZ) [6] [mm]
1 | C[C@@H](O)[C@H]1C(=O)N2C(C(=O)O)=C(SCCNC=N)C[C@H]12 [IMIPENEM ANHYDROUS] | 20 | 0.064 (≈ 0.214 µM) | 21 | 3 (≈ 10 µM) | 2 (≈ 6.68 µM) | 26
2 | C[C@@H](O)[C@H]1C(=O)N2C(C(=O)O)=C(S[C@@H]3CN[C@H](C(=O)N(C)C)C3)[C@H](C)[C@H]12 [MEROPENEM] | 13 | 0.25 (≈ 0.652 µM) | 14 | 8 (≈ 20.9 µM) | 4 (≈ 10.4 µM) | 27
